Results published in PMC13210772, “Dual FLT3/MAPK14 Proteolysis-Targeting Chimera (PROTAC) Induces Potent Acute Myeloid Leukemia Cell Death” (Pharmaceuticals, 2026).

Key:
MOLM-13 = test system: MOLM-13; set-up: method as in PMID 30427680, PMID 34959180, PMID 34694800, PMID 36332882, PMID 38655686; conditions: reported FLT3 PROTACs, Figure 1; cited from earlier work
YES1 = YES1 (Homo sapiens, UniProt P07947); assay: NanoBRET CELLinib128; conditions: read-out: Tracer bound
CLK4 = CLK4 (Homo sapiens, UniProt Q9HAZ1); assay: NanoBRET CELLinib128; conditions: read-out: Tracer bound
RIPK1 = RIPK1 (Homo sapiens, UniProt Q13546); assay: NanoBRET CELLinib128; conditions: read-out: Tracer bound
FLT3-ITD = molecular target: T1, FLT3-ITD (Homo sapiens, UniProt P36888, INS600HVDFREYEYD); assay: Phosphorylation of FLT3-ITD, immunoblot in MV4-11 cells; type: cell-based; set-up: We treated MV4-11 cells with the synthesized degraders of FLT3; endogenous in cells; host or cells: MV4-11
T1 sequence (P36888 with tags, fused parts or gaps INS600HVDFREYEYD): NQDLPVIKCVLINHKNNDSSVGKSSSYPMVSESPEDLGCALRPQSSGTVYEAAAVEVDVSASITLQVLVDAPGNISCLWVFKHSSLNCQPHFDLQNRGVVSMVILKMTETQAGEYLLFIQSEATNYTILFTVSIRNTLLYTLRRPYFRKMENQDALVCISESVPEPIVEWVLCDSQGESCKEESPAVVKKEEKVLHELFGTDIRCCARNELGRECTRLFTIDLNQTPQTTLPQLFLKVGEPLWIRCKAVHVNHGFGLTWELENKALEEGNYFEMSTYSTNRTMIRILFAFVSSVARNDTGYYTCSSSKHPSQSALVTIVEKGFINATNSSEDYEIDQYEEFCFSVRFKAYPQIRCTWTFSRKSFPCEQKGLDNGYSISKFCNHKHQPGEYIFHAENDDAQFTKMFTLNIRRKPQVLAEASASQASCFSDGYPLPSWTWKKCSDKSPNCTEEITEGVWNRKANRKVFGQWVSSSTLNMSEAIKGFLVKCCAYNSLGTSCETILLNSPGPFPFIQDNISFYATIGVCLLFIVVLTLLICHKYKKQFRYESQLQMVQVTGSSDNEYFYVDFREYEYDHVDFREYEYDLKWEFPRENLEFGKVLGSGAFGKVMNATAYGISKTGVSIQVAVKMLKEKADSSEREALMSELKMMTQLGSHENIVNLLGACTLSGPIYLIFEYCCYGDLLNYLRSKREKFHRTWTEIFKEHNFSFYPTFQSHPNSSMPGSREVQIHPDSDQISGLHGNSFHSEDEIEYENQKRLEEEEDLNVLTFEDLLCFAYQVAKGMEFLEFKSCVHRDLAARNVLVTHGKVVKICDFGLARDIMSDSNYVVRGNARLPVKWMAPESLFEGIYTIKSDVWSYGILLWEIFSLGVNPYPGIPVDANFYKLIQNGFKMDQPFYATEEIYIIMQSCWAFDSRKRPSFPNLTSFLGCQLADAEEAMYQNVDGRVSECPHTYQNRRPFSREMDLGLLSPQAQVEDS
From the text: We aimed to delineate if the FLT3 inhibitor part of MA191 acts as a MAPK14 inhibitor in MV4-11 cells. We used the phosphorylation of FLT3-ITD and the phosphorylation of MAPK14 as markers for their activation. […] This finding is consistent with the detection of MAPK14 in the kinase selectivity profiling approach (Figure 3; MAPK14 is termed p38α therein).
Figure 7 Targeting MAPK14 augments anti-leukemic effects of an inhibition of FLT3-ITD. (a) The graphs show the mRNA levels of MAPK14 in leukemia cells and normal blood cells. […] All immunoblots show data from at least two independent repetitions. (c) Model for how inhibition of various signaling pathways affects AML cells (red, cytoplasm, blue, nucleus).

MAPK14 [1] = molecular target: T2, MAPK14 (Homo sapiens, UniProt Q16539); assay: MAPK14 degradation, immunoblot in leukemia cells; type: cell-based; set-up: endogenous in cells; host or cells: K562, RS4-11, MV4-11, MOLM-13 (A17); MV4-11 (A20); conditions: K562, RS4-11, MV4-11 and MOLM-13 cells; 50 nM MA191, 24 h
MAPK14 [2] = molecular target: T2, MAPK14; assay: Phosphorylation of MAPK14, immunoblot in MV4-11 cells; type: cell-based; set-up: endogenous in cells; host or cells: K562, RS4-11, MV4-11, MOLM-13 (A17); MV4-11 (A20)

Chain of RIPK1 (Q13546 whole entry): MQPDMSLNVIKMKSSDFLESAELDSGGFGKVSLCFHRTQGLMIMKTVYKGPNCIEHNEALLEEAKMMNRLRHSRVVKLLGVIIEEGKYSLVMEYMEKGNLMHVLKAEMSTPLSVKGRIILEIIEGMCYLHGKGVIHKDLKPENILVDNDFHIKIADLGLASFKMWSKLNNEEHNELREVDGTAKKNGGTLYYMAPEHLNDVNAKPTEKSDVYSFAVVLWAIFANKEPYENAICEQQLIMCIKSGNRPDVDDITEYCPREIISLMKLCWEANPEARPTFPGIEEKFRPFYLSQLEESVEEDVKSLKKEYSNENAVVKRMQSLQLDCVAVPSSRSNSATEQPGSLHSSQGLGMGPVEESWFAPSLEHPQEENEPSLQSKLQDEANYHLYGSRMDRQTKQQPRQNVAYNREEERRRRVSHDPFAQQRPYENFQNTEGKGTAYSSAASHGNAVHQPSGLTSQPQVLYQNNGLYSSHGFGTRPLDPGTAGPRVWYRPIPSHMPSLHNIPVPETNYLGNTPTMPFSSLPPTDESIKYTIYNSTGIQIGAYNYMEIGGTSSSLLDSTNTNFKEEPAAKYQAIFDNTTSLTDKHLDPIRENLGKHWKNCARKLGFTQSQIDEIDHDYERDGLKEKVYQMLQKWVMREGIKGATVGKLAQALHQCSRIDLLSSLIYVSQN
Chain of CLK4 (Q9HAZ1 whole entry): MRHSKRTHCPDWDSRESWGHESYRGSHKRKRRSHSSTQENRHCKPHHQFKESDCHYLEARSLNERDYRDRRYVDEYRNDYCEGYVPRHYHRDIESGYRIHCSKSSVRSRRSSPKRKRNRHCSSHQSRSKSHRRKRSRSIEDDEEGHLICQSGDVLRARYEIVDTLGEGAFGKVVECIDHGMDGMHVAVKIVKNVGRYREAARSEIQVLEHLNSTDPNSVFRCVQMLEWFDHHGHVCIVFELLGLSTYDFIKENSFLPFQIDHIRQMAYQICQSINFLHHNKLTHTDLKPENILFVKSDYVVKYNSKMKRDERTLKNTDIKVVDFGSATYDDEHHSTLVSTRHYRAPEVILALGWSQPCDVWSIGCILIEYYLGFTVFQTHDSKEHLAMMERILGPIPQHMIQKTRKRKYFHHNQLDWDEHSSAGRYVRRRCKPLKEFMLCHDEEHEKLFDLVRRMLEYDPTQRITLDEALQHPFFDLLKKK
Chain of YES1 (P07947 whole entry): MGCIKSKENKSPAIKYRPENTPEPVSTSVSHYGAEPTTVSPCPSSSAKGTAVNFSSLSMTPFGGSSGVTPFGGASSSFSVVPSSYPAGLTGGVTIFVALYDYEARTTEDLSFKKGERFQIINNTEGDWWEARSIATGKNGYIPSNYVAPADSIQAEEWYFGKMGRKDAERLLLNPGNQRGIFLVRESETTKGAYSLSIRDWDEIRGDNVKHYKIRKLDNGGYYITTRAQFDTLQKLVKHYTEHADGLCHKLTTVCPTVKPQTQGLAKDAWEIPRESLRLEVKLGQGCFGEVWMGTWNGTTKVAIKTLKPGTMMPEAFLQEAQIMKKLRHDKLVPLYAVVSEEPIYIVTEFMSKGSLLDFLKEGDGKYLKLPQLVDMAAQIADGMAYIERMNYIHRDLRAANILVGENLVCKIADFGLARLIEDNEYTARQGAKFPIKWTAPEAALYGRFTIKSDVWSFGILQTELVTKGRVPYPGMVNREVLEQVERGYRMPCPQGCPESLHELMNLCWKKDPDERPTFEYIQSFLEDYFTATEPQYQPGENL
T2 sequence (Q16539 2-360 limits assumed): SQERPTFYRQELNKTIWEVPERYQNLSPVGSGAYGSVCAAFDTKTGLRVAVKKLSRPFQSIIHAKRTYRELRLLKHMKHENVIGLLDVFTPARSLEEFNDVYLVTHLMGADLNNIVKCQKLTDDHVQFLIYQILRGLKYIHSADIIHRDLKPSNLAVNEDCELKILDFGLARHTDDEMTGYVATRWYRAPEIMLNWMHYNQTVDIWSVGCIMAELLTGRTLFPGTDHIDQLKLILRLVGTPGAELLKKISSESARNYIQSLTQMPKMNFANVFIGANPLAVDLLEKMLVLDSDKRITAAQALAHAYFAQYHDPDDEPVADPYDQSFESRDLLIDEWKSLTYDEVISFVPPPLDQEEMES

SMILES | IC50 (MOLM-13) | remaining activity at 1 µM (YES1) | remaining activity at 1 µM (CLK4) | remaining activity at 1 µM (RIPK1) | phosphorylation of FLT3-ITD (FLT3-ITD) | MAPK14 protein level, immunoblot (MAPK14 [1]) | phosphorylated MAPK14 (p-MAPK14) (MAPK14 [2])
Cc1ncsc1-c1ccc([C@H](C)NC(=O)[C@@H]2C[C@@H](O)CN2C(=O)[C@@H](NC(=O)CCOCCOCCOCCNC(=O)c2cc(Oc3ccc(NC(=O)Nc4cc(C(C)(C)C)on4)cc3)ccn2)C(C)(C)C)cc1 [MA49, reference compound] | 4.8 ± 3.7 nM | – | – | – | – | – | –
CNC(=O)c1cc(Oc2ccc(NC(=O)Nc3cc(C(C)(C)C)on3)cc2)ccn1 [MA68, reference compound] | – | 77.1% | 93.8% | 93.3% | – | – | –
Cc1ncsc1-c1ccc([C@H](C)NC(=O)[C@@H]2C[C@@H](O)CN2C(=O)[C@@H](NC(=O)[C@H]2CC[C@H](C(=O)N3CCN(CCNC(=O)c4cc(Oc5ccc(NC(=O)Nc6cc(C(C)(C)C)on6)cc5)ccn4)CC3)CC2)C(C)(C)C)cc1 [MA191, 4-(4-(3-(5-(tert-Butyl)isoxazol-3-yl)ureido)phenoxy)-N-(2-(4-(trans-4-(((S)-1-((2S,4R)-4-hydroxy-2-(((S)-1-(4-(4-methylthiazol-5-yl)phenyl)ethyl)carbamoyl)pyrrolidin-1-yl)-3,3-dimethyl-1-oxobutan-2-yl)carbamoyl)cyclohexanecarbonyl)piperazin-1-yl)ethyl)picolinamide] | – | 120% | 100% | 104% | inhibited the phosphorylation of FLT3-ITD | depleted MAPK14 | loss of p-MAPK14 together with MAPK14
